Earlier results in patent US8440796B2, “Lenalidomide and thalidomide immunoassays” (Saladax Biomedical Inc., priority 2010, dated 2013).
Like-named read-outs stand apart in the source and are kept apart here.

How the values were obtained:
[1] = patients with central nervous system tumors
[2] = HIV patients, phase I study
[3] = healthy subjects

| variability in Cmax [1] | variability in t1/2 [1] | SMILES | half-life time t1/2 [2] [h] | maximum drug concentration Cmax [2] [ng/mL] | variability in Cmax [3] | variability in t1/2 [3] |
| --- | --- | --- | --- | --- | --- | --- |
| up to 78% | up to 122% | Nc1cccc2c1CN(C1CCC(=O)NC1=O)C2=O (stereo not drawn) [lenalidomide] | – | – | – | – |
| – | – | O=C1CCC(N2C(=O)c3ccccc3C2=O)C(=O)N1 (stereo not drawn) [thalidomide] | 5.9 ± 2.3 | 2800 ± 2600 | up to 52% | up to 37% |
